In PubChem BioAssay (NCI) one finds TGI and GI50 data, which are given here for nine compounds.

The structures appear in SMILES notation.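 Dose response: 5 concentrations. Exposure: 48 h. Format: 96-well plates. Endpoint: linear interpolation; highest concentration if not reached. Here, GI50 denotes the concentration required for 50% inhibition of growth. TGI is the concentration that stops growth completely.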

Holding throughout (assay): NCI tumour cell line growth inhibition, 48 h
Test [1] concerns DMS 273 small cell lung.
Test [2] relates to KM20L2 colon.
For test [3], the system named is DLD-1 colon.
The test system of test [4] is RXF-631 renal.
Test [5] deals with M19-MEL melanoma.
Test [6] relates to SNB-78 CNS.
Test [7] concerns DMS 114 small cell lung.
Test [8] has as its system XF 498 CNS.
In test [9] the test system is SN12K1 renal.
Test [10] deals with MDA-N.
The subject of test [11] is P388/ADR leukemia.

As to `CN1N=CSC12C(=O)N(c1ccccc1)C(=O)N2c1ccccc1` (centres undefined), the TGI in [1], in test [2], in test [3], in test [4], in [5] and in test [6] was greater than 100 µM in each case. The TGI in test [7] and in [8] was greater than 100 µM each time.

Regarding `CCc1cccc(C)c1NS(=O)(=O)c1ccccc1`, the TGI in test [1], in test [2], in test [3], in test [4], in [5] and in test [6] was greater than 100 µM each time. The TGI in test [7] and in test [8] was greater than 100 µM each time.

For `CC1CC(C)CC(C)C(O)/C(C#N)=C/C=C/CC(C2CCCC2C(=O)O)OC(=O)CC(O)C(C)C1` (centres undefined), the TGI is 0.11 µM in test [1]; less than 0.0223 µM in [9]; 1.43 µM in [2]; 0.0819 µM in [3]; 0.254 µM in test [4]; 0.0532 µM in test [5]. For the same compound, the TGI in test [6] is 0.13 µM; in test [10], 0.0646 µM; in test [7], less than 0.016 µM; in test [11], less than 0.0143 µM; in test [8], less than 0.0264 µM. Besides, the GI50 in [10] was 0.0188 µM.

Consider `O=c1cc(-c2cccs2)[nH]c2cc3c(cc12)OCO3`, for which the TGI in test [1] is greater than 100 µM; in test [2] it was 41.3 µM; in [3], greater than 100 µM; in [4], greater than 100 µM; in [5] it was greater than 100 µM; in test [6], greater than 100 µM. For the same compound, the TGI in test [7] was greater than 24.5 µM; in test [8], 15.3 µM.

Take `CCOC(=O)Cc1nc2ccc3c(c2[nH]c1=O)C(=O)c1ccccc1C3=O`: the TGI in test [1], in test [2], in test [3], in [4], in test [5] and in test [6] was greater than 100 µM in each case. For the same compound, the TGI in [7] and in test [8] was greater than 100 µM throughout.

Consider `CCc1c(C#N)c(=O)[nH]c(=O)n1CCN1CCN(C(=O)NCCCCCCNC(=O)N2CCN(CCn3c(CC)c(C#N)c(=O)[nH]c3=O)CC2)CC1`, for which the TGI in test [1], in test [2], in [3], in test [4], in test [5] and in [6] was greater than 100 µM each time. The TGI in [7] and in test [8] was greater than 100 µM throughout.

For `CC[O-].CC[O-].O=C([CH-]C(=O)c1ccccc1)CCCCCCCCC(=O)[CH-]C(=O)c1ccccc1.[Ti+4]`, the GI50 in [1], in test [2], in test [3], in [4], in [5] and in test [6] was greater than 100 µM throughout. The results for the GI50 in test [7] and in test [8] were 80.6 µM and greater than 100 µM, respectively. In addition, the TGI in test [1], in test [2], in test [3], in [4], in test [5] and in test [6] was greater than 100 µM in each case. For the same compound, the TGI in [7] and in test [8] was greater than 100 µM each time.

As for `COC(=O)c1sc(C(=O)OC)c2c1CS(=O)C2`, the TGI in test [1], in [2], in [3], in test [4], in test [5] and in test [6] was greater than 100 µM each time. Also, the TGI in [7] and in [8] was greater than 100 µM each time.

For `COC(=O)/C(=N\NC(C)(C)C)C(C(=O)OC)C(=O)C(=O)Nc1cc(Cl)ccc1Cl` (centres undefined), the TGI in [1], in test [2], in test [3], in test [4], in test [5] and in [6] was greater than 100 µM throughout. The TGI in [7] and in test [8] was greater than 100 µM throughout.
